Measured values as given in patent US6608086B2, “Dihydropyridines and new uses thereof” (Synaptic Pharmaceutical Corporation, priority 1993, dated 2003).
Structures can show the parent of a compound that is named as a salt.

Question: Which melting point does the source give for `CCC1=C(C(=O)NCCCN2CCC(c3ccccc3)(c3ccccc3)CC2)C(c2ccc([N+](=O)[O-])cc2)C(C(N)=O)=C(C)N1` (stereo not drawn) (as salt: hydrochloride) [Example 81, 5-carboxamido-2-ethyl-1,4-dihydro-6-methyl-4-(4-nitro)phenyl-3-(N-(3-(4,4-diphenylpiperidin-1-yl)propyl))carboxamidopyridine hydrochloride] here?
Answer: Its melting point is 243 to 248 °C (dec.).

Question: Which melting point does the source give for `COC(=O)C1=C(C)NC(c2ccoc2)=C(C(=O)NCCCN2CCC(c3ccccc3)CC2)C1c1ccc([N+](=O)[O-])cc1` (stereo not drawn) (as salt: hydrochloride) (hydrate or solvate) [Example 65, 2-(Furan-3-yl)-1,4-dihydro-5-methoxycarbonyl-6-methyl-4-(4-nitrophenyl)-5-{N-[3-(4-phenylpiperidin-1-yl)propyl]}carboxamidopyridine hydrochloride hydrate] here?
Answer: Its melting point is 205 to 210 °C (dec.).

Question: With `COC(=O)C1=C(C)NC(c2ccccc2)=C(C(=O)NCCCN2CCC(c3ccccc3)(c3ccccc3)CC2)C1c1ccc([N+](=O)[O-])cc1` (stereo not drawn) (as salt: hydrochloride) (hydrate or solvate) [Example 78, 1,4-Dihydro-5-methoxycarbonyl-6-methyl-4-(4-nitro)phenyl-2-phenyl-3-(N-(3-(4,4-diphenylpiperidin-1-yl)propyl))carboxamidopyridine hydrochloride hydrate] as the compound, how does the melting point read?
Answer: Its melting point is 210 to 215 °C (dec.).

Question: For `COc1ccc(C2(c3ccccc3)CCN(CCCNC(=O)C3=C(C)NC(C)=C(C(N)=O)C3c3ccc([N+](=O)[O-])cc3)CC2)cc1` (stereo not drawn) (as salt: hydrochloride) [Example 98, 5-Carboxamido-1,4-dihydro-3-{N-[3-(4-(4-methoxyphenyl)-4-phenylpiperidin-1-yl)propyl]}carboxamido-2,6-dimethyl-4-(4-nitrophenyl)pyridine hydrochloride], which melting point is on record?
Answer: Its melting point is 185 °C (dec.).

Question: Which melting point does the source give for `COC(=O)C1=C(C)NC(C)=C(C(=O)NCCCN2CCc3cc(OC)c(OC)cc3C2)C1c1ccc([N+](=O)[O-])cc1` (stereo not drawn) (as salt: hydrochloride) (hydrate or solvate) [Example 57, 1,4-Dihydro-3-methoxycarbonyl-5-{N-[3-(1,2,3,4-tetrahydro-6,7-dimethoxyisoquinolin-2-yl)propyl]}carboxamido-2,6-dimethyl-4-(4-nitrophenyl)pyridine hydrochloride hydrate] here?
Answer: The melting point was 161 to 162 °C.

Question: With `CCC1=C(C(N)=O)C(c2ccc([N+](=O)[O-])cc2)C(C(=O)NCCCN2CCN(c3ccccc3)CC2)=C(CC)N1` (stereo not drawn) (as salt: hydrochloride) (hydrate or solvate) [Example 104, 5-Carboxamido-2,6-diethyl-1,4-dihydro-4-(4-nitrophenyl)-3-{N-[3-(4-phenylpiperazin-1-yl)propyl]}carboxamido-pyridine hydrochloride hydrate] as the compound, how does the melting point read?
Answer: Its melting point is 160 °C (dec.).

Question: Which melting point does the source give for `CC1=C(C#N)C(c2ccc([N+](=O)[O-])cc2)C(C(=O)NCCCN2CCC(c3ccccc3)(c3ccccc3)CC2)=C(C)N1` (stereo not drawn) (as salt: hydrochloride) [Example 37] here?
Answer: Its melting point is 252 °C (dec.).

Question: For `CCOC(=O)C1=C(CC(=O)NCCCN2CCC(c3ccccc3)(c3ccccc3)CC2)NC(C)=C(C(=O)OC)C1c1ccc([N+](=O)[O-])cc1` (stereo not drawn) (as salt: fumarate) [Example 89, 3-Ethoxycarbonyl-1,4-dihydro-5-methoxycarbonyl-6-methyl-4-(4-nitro)phenyl-2-(N-(3-(4,4,-diphenylpiperidin-1-yl)propyl)carboxamido)methylpyridine, fumarate salt], which melting point is on record?
Answer: The melting point was 134 to 137 °C.

Question: Which melting point does the source give for `CC(=O)C1=C(C)NC(C)=C(C(=O)NCCCN2CCC(c3ccccc3)(c3ccccc3)CC2)C1c1ccc([N+](=O)[O-])cc1` (stereo not drawn) (as salt: hydrochloride) (hydrate or solvate) [Example 47, 5-Acetyl-1,4-dihydro-2,6-dimethyl-4-(4-nitrophenyl)-3-{N-[3-(4,4-diphenylpiperidin-1-yl)propyl]}carboxamidopyridine] here?
Answer: The melting point was 173 to 174 °C.
